Test results from patent US20160115540A1, “PRODRUGS AND DRUGS” (Biogen MA Inc., priority 2013, published 2016).
Where a name gives a salt, the structure may show the parent alone.

How the values were obtained:
cerebellum = experiment: Transcriptional profiling on Affymetrix GeneChips, single dose, naïve mice: cerebellum; type: in vivo, C57BL/6 mice; details: for Number of differentially expressed genes identified: Cerebellum: Naïve, Single Dose
Experimental: In vivo, DMF is rapidly metabolized to monomethyl fumarate (MMF).
(§1) Animals were exposed to CO2 and whole blood collected via cardiac puncture. Two 100 μl aliquots of whole blood were collected in 1.5 mL microcentrifuge tubes and snap frozen in liquid nitrogen. Peripheral (liver, spleen, kidney and jejunum) and CNS brain (cerebellum, hippocampus, striatum and cortex) tissues were harvested and snap frozen in liquid nitrogen, with special care taken to collect tissues of similar size and from the same location. All samples were stored at −80° C. until RNA extraction was conducted.
(§2) For RNA preparation, frozen tissues were placed in 2 mL RNAse-free 96-well blocks with 1.5 mL QIAzol Lysis Reagent (QIAgen) and a 3.2 mm stainless steel bead (BioSpec Products, Bartlesville, Okla.). Tissues were disrupted for four cycles of 45 seconds in a Mini-Beadbeater (Biospec Products). RNA was extracted in chloroform and the aqueous phase was mixed with an equal volume of 70% ethanol. Extracted RNA was applied to RNeasy 96 plates and purified by the spin method according to the manufacturer's protocol (RNeasy 96 Universal Tissue Protocol, QIAgen, Hilden Germany).
(§3) Automated sample amplifications and biotin labelings were carried out using the NuGEN Ovation RNA Amplification system V2 (Cat #3100), Ovation WB reagent (Cat #1300) and Encore Biotin module (Cat #4200) (NuGEN Technologies, Inc, San Carlos, Calif.) according to manufacturer's recommendations using an Arrayplex automated liquid handler (Beckman Coulter, Indianapolis, Ind.). Two micrograms of biotin labeled sscDNA probe were hybridized to Affymetrix GeneChip Affymetrix HT_MG-430_PM plate arrays with modified conditions as described in Allaire et al. Washing and staining of the hybridized arrays were completed as described in the GeneChip Expression analysis technical manual for HT plate arrays using the Genechip® Array Station (Affymetrix, Santa Clara, Calif.) with modifications as described in Allaire et al. The processed GeneChip® plate arrays were scanned using GeneTitan scanner (Affymetrix, Santa Clara, Calif.).
(§4) Affymetrix scans were subject to quality control (QC) measures. These tests included a visual inspection of the distribution of raw signal intensities and an assessment of RNA degradation, relative log expression (RLE), and normalized unsealed standard error (NUSE). All sample scans that passed these QC metrics were included in the analysis.
(§5) All CEL files were subjected to GC-content-based Robust Multi-array Average (GCRMA) normalization (version 2.20.0) (Irizarry R A, et al. Nucleic Acids Res 2003; 31:e15; Li C, et al. Genome Biol 2001; 2:[…]0032). Expression levels were log (base 2) transformed.
(§6) All calculations and analyses were carried out using R (version 2.11.1) and Bioconductor computational tools (Gentleman R. Springer Science+Business Media 2005).

striatum = experiment: Transcriptional profiling on Affymetrix GeneChips, single dose, naïve mice: striatum; type: in vivo, C57BL/6 mice; details: for Number of differentially expressed genes identified: Striatum: Naïve, Single Dose; for Aox1 (1419435_PM_at) differential expression: 7 hr; for differentially expressed genes: 100DMF-vs-100MMF
Experimental: Treated mice were sacrificed at 2, 7, or 12 hours. Tissues (liver, spleen, kidney, jejunum, cortex, hippocampus, striatum and whole blood) were collected and analyzed by transcriptional profiling on mouse Affymetrix GeneChips.
Tissues (liver, spleen, kidney, jejunum, cortex, hippocampus, striatum and whole blood) were collected and analyzed by transcriptional profiling on mouse Affymetrix GeneChips.
as §1, §2, §3, §4, §5, §6

[1] = 100 mpk DMF-vs-100 mpk MMF, 2 h after last dosing
[2] = 100 mpk DMF-vs-100 mpk MMF, 7 h after last dosing
[3] = 100 mpk DMF-vs-100 mpk MMF, 12 h after last dosing
[4] = 100 mpk, vs Vehicle, 2 h after last dosing
[5] = 100 mpk, vs Vehicle, 7 h after last dosing
[6] = 100 mpk, vs Vehicle, 12 h after last dosing
[7] = cerebellum, 100MMF-vs-Veh, 12 h
[8] = striatum, 2 hr after single 100 mg/kg oral dose
[9] = striatum, 12 hr after single 100 mg/kg oral dose

## COC(=O)/C=C/C(=O)OC [DMF, dimethyl fumarate]
cerebellum; [1]
  Number of differentially expressed genes identified: Cerebellum: 0
cerebellum; [2]
  Number of differentially expressed genes identified: Cerebellum: 0
cerebellum; [3]
  Number of differentially expressed genes identified: Cerebellum: 0
cerebellum; [4]
  Number of differentially expressed genes identified: Cerebellum: 0
cerebellum; [5]
  Number of differentially expressed genes identified: Cerebellum: 0
cerebellum; [6]
  Number of differentially expressed genes identified: Cerebellum: 0
cerebellum; cerebellum, 100DMF-vs-100MMF, 2 h
  differentially expressed genes: None
cerebellum; cerebellum, 100DMF-vs-100MMF, 7 h
  differentially expressed genes: None
cerebellum; cerebellum, 100DMF-vs-100MMF, 12 h
  differentially expressed genes: None
cerebellum; cerebellum, 100DMF-vs-Veh, 2 h
  differentially expressed genes: None
cerebellum; cerebellum, 100DMF-vs-Veh, 7 h
  differentially expressed genes: None
cerebellum; cerebellum, 100DMF-vs-Veh, 12 h
  differentially expressed genes: None
striatum; [1]
  Number of differentially expressed genes identified: Striatum: 0
striatum; [2]
  Number of differentially expressed genes identified: Striatum: 0
striatum; [3]
  Number of differentially expressed genes identified: Striatum: 0
striatum; [4]
  Number of differentially expressed genes identified: Striatum: 4
striatum; [5]
  Number of differentially expressed genes identified: Striatum: 2
striatum; [6]
  Number of differentially expressed genes identified: Striatum: 2
striatum; Striatum
  Number of genes, DMF Only / MMF Only: 5
  Aox1 (1419435_PM_at) differential expression: 1.64
striatum; Striatum, 2 hr
  Gtpbp10 (1434030_PM_at) differential expression: −1.52
  Kdm3b (1428320_PM_at) differential expression: −1.54
  Mkln1 (1416734_PM_at) differential expression: −1.97
  Ptprg (1456070_PM_at) differential expression: −1.54
striatum; Striatum, 12 hr
  Nfia (1438236_PM_at) differential expression: −1.53
  Zeb2 (1422748_PM_at) differential expression: −1.66
striatum; striatum, 2 h
  differentially expressed genes: None
striatum; striatum, 7 h
  differentially expressed genes: None
striatum; striatum, 12 h
  differentially expressed genes: None
striatum; striatum, 100DMF-vs-Veh, 2 h
  FC Gtpbp10 (1434030_PM_at): −1.52
  FC Kdm3b (1428320_PM_at): −1.54
  FC Mkln1 (1416734_PM_at): −1.97
  FC probe 1444791_PM_at: −1.60
striatum; striatum, 100DMF-vs-Veh, 7 h
  FC Aox1 (1419435_PM_at): 1.64
  FC probe 1443353_PM_at: −1.83
striatum; striatum, 100DMF-vs-Veh, 12 h
  FC Nfia (1438236_PM_at): −1.53
  FC Zeb2 (1422748_PM_at): −1.66

## COC(=O)/C=C/C(=O)O [MMF, monomethyl fumarate]
cerebellum; [4]
  Number of differentially expressed genes identified: Cerebellum: 2
cerebellum; [5]
  Number of differentially expressed genes identified: Cerebellum: 0
cerebellum; [6]
  Number of differentially expressed genes identified: Cerebellum: 3
cerebellum; cerebellum, 100MMF-vs-Veh, 2 h
  FC Csnk2a1 (1419034_PM_at): −1.65
  FC Trak2 (1429607_PM_at): −1.55
cerebellum; [7]
  FC Hif3a (1425428_PM_at): 1.58
  FC Pnpla7 (1451361_PM_a_at): 1.52
  FC Vnn1 (1447845_PM_s_at): 1.83
striatum; [4]
  Number of differentially expressed genes identified: Striatum: 6
striatum; [5]
  Number of differentially expressed genes identified: Striatum: 1
striatum; [6]
  Number of differentially expressed genes identified: Striatum: 7
striatum; Striatum
  Number of genes, DMF Only / MMF Only: 12
  Aox1 (1419435_PM_at) differential expression: 1.95
striatum; Striatum, 2 hr
  Gna13 (1422556_PM_at) differential expression: −1.63
  Golga3 (1449616_PM_s_at) differential expression: −1.63
  Grin2a (1421616_PM_at) differential expression: −1.78
  Kdm3b (1428320_PM_at) differential expression: −1.56
  Lrrc41 (1427125_PM_s_at) differential expression: −1.54
  Top2b (1448458_PM_at) differential expression: −1.56
striatum; Striatum, 12 hr
  Adamts9 (1437785_PM_at) differential expression: −2.58
  Galnt12 (1437760_PM_at) differential expression: 1.50
  Hrh3 (1448807_PM_at) differential expression: 1.59
  Itpkb (1435272_PM_at) differential expression: −1.56
  Pvrl3 (1457257_PM_x_at) differential expression: −1.80
  St18 (1455123_PM_at) differential expression: −1.69
  Tmprss6 (1428676_PM_at) differential expression: 1.68
striatum; striatum, 100MMF-vs-Veh, 2 h
  FC Golga3 (1449616_PM_s_at): −1.63
  FC Grin2a (1421616_PM_at): −1.78
  FC Kdm3b (1428320_PM_at): −1.56
  FC Lrrc41 (1427125_PM_s_at): −1.54
  FC Top2b (1448458_PM_at): −1.56
  FC probe 1442867_PM_at: −1.57
striatum; striatum, 100MMF-vs-Veh, 7 h
  FC Aox1 (1419435_PM_at): 1.95
striatum; striatum, 100MMF-vs-Veh, 12 h
  FC Adamts9 (1437785_PM_at): −2.58
  FC Galnt12 (1437760_PM_at): 1.50
  FC Hrh3 (1448807_PM_at): 1.59
  FC Itpkb (1435272_PM_at): −1.56
  FC Pvrl3 (1457257_PM_x_at): −1.80
  FC St18 (1455123_PM_at): −1.69
  FC Tmprss6 (1428676_PM_at): 1.68
striatum; [8]
  Gna13 mRNA fold change vs vehicle: −1.63
  Golga3 mRNA fold change vs vehicle: −1.63
  Grin2a mRNA fold change vs vehicle: −1.78
  Kdm3b mRNA fold change vs vehicle: −1.56
  Lrrc41 mRNA fold change vs vehicle: −1.54
  Top2b mRNA fold change vs vehicle: −1.56
striatum; striatum, 7 hr after single 100 mg/kg oral dose
  Aox1 mRNA fold change vs vehicle: 1.95
striatum; [9]
  Adamts9 mRNA fold change vs vehicle: −2.58
  Galnt12 mRNA fold change vs vehicle: 1.50
  Hrh3 mRNA fold change vs vehicle: 1.59
  Itpkb mRNA fold change vs vehicle: −1.56
  Pvrl3 mRNA fold change vs vehicle: −1.80
  St18 mRNA fold change vs vehicle: −1.69
  Tmprss6 mRNA fold change vs vehicle: 1.68
